The test system of assay [1] is HepG2. Description: Antioxidant activity in human HepG2 cells assessed as decrease in fluorescence level by measuring ratio of micromol of quercetin to 100 umol of compound after 2.5 hrs measured every 5 mins for 1 hr by DCFH-DA staining based fluorescence assay. Type of assay: functional. Further details: scale not given: the % may be the effect or the level left.

Assay [2] relates to MCF7. Description: Antiproliferative activity against human MCF7 cells assessed as reduction in cell survival after 48 hrs by MTT assay. Type of assay: functional, cell-based. Background: Tetrazolium dyes change colour on reduction, which living cells bring about.
The subject of assay [3] is HeLa. Description: Antiproliferative activity against human HeLa cells assessed as reduction in cell survival after 48 hrs by MTT assay. Type of assay: functional, cell-based.
Assay [4] addresses Superoxide dismutase [Cu-Zn] (Homo sapiens) (UniProt P00441). Description: Induction of superoxide dismutase activity in human erythrocytes at 100 ug/ml preincubated followed by AAPH addition measured after 2 hrs. In kind it is cell-based.
The nature of assay [5]: Antiproliferative activity against human SGC7901 cells assessed as cell survival at 100 ug/ml after 48 hrs by MTT assay relative to control. In kind it is functional. The settings on record: SGC-7901, 48 h, read-out: Survival.
Assay [6] relates to HeLa. Description: Antiproliferative activity against human HeLa cells assessed as cell survival at 100 ug/ml after 48 hrs by MTT assay relative to control. Type of assay: functional. The settings on record: read-out: Survival.
The species entered for another assay is Homo sapiens. Description: Induction of glutathione peroxidase activity in human erythrocytes at 100 ug/ml preincubated followed by AAPH addition measured after 2 hrs. Type of assay: cell-based.
Assay [7] deals with MCF7. Description: Induction of apoptosis in human MCF7 cells assessed as plasma membrane blebbing at 500 ug/ml after 48 hrs by scanning electron microscopic analysis. Type of assay: functional, cell-based.
Assay [8] deals with Erythrocyte. Description: Inhibition of lipid peroxidation in human erythrocytes assessed as reduction in AAPH-induced malondialdehyde formation at 100 ug/ml preincubated for 20 mins followed by AAPH addition measured after 2 hrs by […] relative to untreated control. Type of assay: functional.
The subject of assay [9] is Erythrocyte. Description: Inhibition of AAPH-induced oxidative hemolysis in human erythrocytes assessed as smooth and round surface at 100 ug/ml preincubated for 20 mins followed by AAPH addition measured after 2 hrs by scanning electron microscopic analysis. In kind it is functional, cell-based.
The subject of assay [10] is MCF7. Description: Induction of apoptosis in human MCF7 cells assessed as cytoplasm overflow at 500 ug/ml after 24 hrs by scanning electron microscopic analysis. In kind it is functional, cell-based.
The test system of another assay is SGC-7901. Description: Antiproliferative activity against human SGC7901 cells assessed as reduction in cell survival after 48 hrs by MTT assay. Type of assay: functional, cell-based.
The test system of assay [11] is MCF7. Description: Induction of apoptosis in human MCF7 cells assessed as chromatin hypercondensation at 25 to 100 ug/ml after 48 hrs by Hoechst 33258 staining based fluorescence microscopic analysis. In kind it is functional, cell-based.
Assay [12] concerns MCF7. Description: Induction of apoptosis in human MCF7 cells assessed as apoptotic bodies at 500 ug/ml after 48 hrs by scanning electron microscopic analysis. Type of assay: functional, cell-based.
Assay [13] relates to Erythrocyte. Description: Cytoprotective activity in human erythrocytes assessed as inhibition of AAPH-induced oxidative hemolysis at 100 ug/ml preincubated for 30 mins followed by AAPH induction measured after 2 hrs by spectrophotometric analysis relative to control. In kind it is functional.
The test system of assay [14] is MCF7. Description: Induction of apoptosis in human MCF7 cells assessed as nuclear morphological deformity at 500 ug/ml after 12 hrs by scanning electron microscopic analysis. In kind it is functional, cell-based.
Assay [15] concerns Erythrocyte. Description: Cytoprotective activity in human erythrocytes assessed as inhibition of AAPH-induced oxidative hemolysis preincubated for 30 mins followed by AAPH induction measured after 2 hrs by spectrophotometric analysis. In kind it is functional, cell-based.
For the next assay, the target named is T1, Catalase (Homo sapiens) (UniProt P04040).
T1 sequence (whole entry): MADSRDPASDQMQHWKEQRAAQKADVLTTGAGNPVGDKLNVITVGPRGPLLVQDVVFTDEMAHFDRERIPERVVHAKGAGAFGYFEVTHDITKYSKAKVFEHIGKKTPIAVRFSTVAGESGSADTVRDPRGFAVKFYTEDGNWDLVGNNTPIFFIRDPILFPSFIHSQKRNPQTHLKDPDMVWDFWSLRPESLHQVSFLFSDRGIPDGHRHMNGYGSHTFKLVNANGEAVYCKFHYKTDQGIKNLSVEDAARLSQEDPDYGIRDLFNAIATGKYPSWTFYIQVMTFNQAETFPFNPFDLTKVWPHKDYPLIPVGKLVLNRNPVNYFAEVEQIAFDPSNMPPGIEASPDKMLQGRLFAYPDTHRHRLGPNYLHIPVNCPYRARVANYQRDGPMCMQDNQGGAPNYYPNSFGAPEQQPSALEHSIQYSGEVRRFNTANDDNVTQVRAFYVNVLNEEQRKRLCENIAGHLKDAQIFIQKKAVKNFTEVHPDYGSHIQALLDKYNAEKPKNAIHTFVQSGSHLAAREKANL
Description: Reduction of catalase activity in human erythrocytes at 100 ug/ml preincubated followed by AAPH addition measured after 2 hrs. In kind it is cell-based. Further details: scale not given: the % may be the effect or the level left.

In assay [16] the test system is MCF7. Description: Induction of apoptosis in human MCF7 cells assessed as cell shrinkage at 500 ug/ml after 24 hrs by scanning electron microscopic analysis. In kind it is functional, cell-based.
The subject of assay [17] is HepG2. Description: Antioxidant activity in human HepG2 cells assessed as decrease in AAPH-induced ROS level at 100 ug/ml preincubated for 2 hrs followed by AAPH addition by DCFH-DA staining based microplate fluorometric analysis relative to control. In kind it is functional. More on the design: scale not given: the % may be the effect or the level left.
In assay [18] the test system is MCF7. Description: Antiproliferative activity against human MCF7 cells assessed as cell survival at 100 ug/ml after 48 hrs by MTT assay relative to control. Type of assay: functional. The settings on record: MCF7, 48 h, read-out: Survival.
Assay [19] has as its system MCF7. Description: Induction of apoptosis in human MCF7 cells assessed as morphological deformity at 500 ug/ml after 48 hrs by scanning electron microscopic analysis. Type of assay: functional, cell-based.
In assay [20] the test system is MCF7. Description: Induction of apoptosis in human MCF7 cells assessed as morphological changes at 500 ug/ml by scanning electron microscopic analysis. Type of assay: functional, cell-based. The settings on record: TDE = time-dependent effect.
The test system of assay [21] is A549. Description: Antiproliferative activity against human A549 cells assessed as cell survival at 100 ug/ml after 48 hrs by MTT assay relative to control. The settings on record: A549, 48 h, read-out: Survival. In kind it is functional.
The subject of assay [22] is A549. Description: Antiproliferative activity against human A549 cells assessed as reduction in cell survival after 48 hrs by MTT assay. Type of assay: functional, cell-based.
The test system of assay [23] is HepG2. Description: Antioxidant activity in human HepG2 cells assessed as decrease in fluorescence level after 2.5 hrs measured every 5 mins for 1 hr by DCFH-DA staining based fluorescence assay. In kind it is functional, cell-based.
Assay [24] deals with MCF7. Description: Induction of apoptosis in human MCF7 cells assessed as chromatin condensation at 500 ug/ml after 12 hrs by scanning electron microscopic analysis. Type of assay: functional, cell-based.
Assay [25] deals with MCF7. Description: Induction of apoptosis in human MCF7 cells assessed as mitochondrial membrane potential loss at 100 ug/ml after 48 hrs by JC-1 staining based fluorescence microscopic analysis. Type of assay: functional, cell-based.

Calls of active or inactive are those of the source. The rule behind the calls is not given here.

Sequence of Superoxide dismutase [Cu-Zn] (Homo sapiens) (P00441 whole entry): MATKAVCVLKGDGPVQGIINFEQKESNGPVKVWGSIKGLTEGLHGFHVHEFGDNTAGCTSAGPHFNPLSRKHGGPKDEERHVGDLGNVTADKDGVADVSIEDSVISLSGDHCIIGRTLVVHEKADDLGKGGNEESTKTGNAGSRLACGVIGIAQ

`O=C(O[C@@H]1Cc2c(O)cc(O)cc2O[C@@H]1c1cc(O)c(O)c(O)c1)c1cc(O)c(O)c(O)c1` [EPIGALOCATECHIN GALLATE]: in the assay on HepG2 [1], the Activity is on record as 33.1%.
On the same count and under the same terms, with `O=c1c(O)c(-c2cc(O)c(O)c(O)c2)oc2cc(O)cc(O)c12` [MYRICETIN] the figure was 36.8%.
For orientation: inhibition means the drop in the measured response relative to a control, in per cent. With `O=c1c(O)c(-c2ccc(O)cc2)oc2cc(O)cc(O)c12` [KAEMPFEROL], the Activity entry in the assay with MCF7 [2] is “Dose-dependent effect”; in the assay on HeLa [3], “Dose-dependent effect”; in the assay on SGC-7901, “Dose-dependent effect”; at Catalase (Homo sapiens) it was below 95.5%; in the assay with HepG2 [17], 88.25%; in the assay with HepG2 [1], 59.8%. Moreover, the Activity result in the assay with MCF7 [20] was “tde”; in the assay with A549 [22] it was “Dose-dependent effect”; in the assay with HepG2 [23], “Dose-dependent effect”. The outcome (in assay [4]; in the assay listed under Homo sapiens) was inactive. For the same molecule, the viability at 100 µg/mL came out at 59.2% in assay [5], 57.5% in the assay on HeLa [6], 47.9% with MCF7 [18] and 60.2% in the assay with A549 [21]. Also, the result in the assay on MCF7 [7], in the assay with MCF7 [10], in the assay on MCF7 [11], with MCF7 [12], in the assay with MCF7 [14] and in the assay on MCF7 [16] was Active. The result with MCF7 [19], in the assay with MCF7 [24] and with MCF7 [25] was Active. Moreover, the inhibition at 100 µg/mL turned out to be 36.5% in the assay on Erythrocyte [8] and 87.4% in the assay on Erythrocyte [13]. Further, the inhibition result in the assay on Erythrocyte [9] was “Active”. In the assay on Erythrocyte [15], the inhibition result is “Dose-dependent effect”. The EC50 in the assay on HepG2 [23] was 7.74 µmol.
On to `COc1ccc(-c2cc(=O)c3c(O)cc(O)cc3o2)cc1O` [DIOSMETIN], for which the Activity in the assay on HepG2 [1] was 58%. In addition, the EC50 in the assay on HepG2 [23] amounted to 7.98 µmol.
For the molecule `O=c1cc(-c2ccc(O)c(O)c2)oc2cc(O)cc(O)c12` [LUTEOLIN], the Activity with HepG2 [1] stood at 32.3%.
Regarding `O=c1c(O)c(-c2ccc(O)c(O)c2)oc2cc(O)cc(O)c12` [QUERCETIN], the EC50 with HepG2 [23] came to 4.63 µmol.

Source of the values: ChEMBL document CHEMBL3779891 (Eur J Med Chem, 2016).
